Data taken from US10781229B2, “Tris- or neopentyl glycol-based amphiphiles and uses thereof” (Industry-University Cooperation Foundation Hanyang …, priority 2015, dated 2020).

Experiments:
[1] = target: LeuT E192C^TMR (Aquifex aeolicus, UniProt O67854, E192C); assay: Site-directed fluorescence (iodide) quenching of LeuT E192C-TMR, Stern-Volmer analysis; format: biochemical; conditions: for Δ KSV: leucine-induced change of iodide accessibility of TMR, CMC+0.04% by weight detergent, means [s.e.m. interval]; for Ksv when leucine is absent: no leucine, LeuT E192C-TMR in CMC+0.04% by weight detergent
Excerpt: A principle of this experiment is as follows: A cysteine residue was inserted into a 192th LeuT site (E192C), followed by coupling with a thiol-reactive fluorophore (tetramethylrhodamine-5-maleimide, TMR). The prepared LeuT E192C^TMR, as TMR-coupled LeuT, is an excellent system to sensitively monitor protein structure change in response to ligand coupling. […] Due to such change, TMR fluorescence molecules exposed to an aqueous solution become closer to iodide (I^−), as a quencher dissolved in water, whereby strong fluorescence quenching is caused. TMR quenching intensity by leucine coupling may be represented by Stern-Volmer plotting and thus structural flexibility of a protein may be directly measured. Ligand bindability of the TMR-labeled transporter was measured using SPA while increasing the amount of [^3H]leucine.
In particular, structure, expression, purification, and fluorescence labeling were performed according to the following methods. In accordance with a method disclosed in a paper published by C. B. Billesbolle, et al. (J. Biol. Chem. 2015, 290, 26725-26738), a leucine transporter mutant (LeuT E192C^TMR) was produced and purification and labeling were carried out. In summary, a residue of the E192 was mutated with cysteine using QuikChange (Agilent Technologies) such that fluorescence coupling was accomplished by maleimide labeling. The LeuT mutant was expressed in E. coli C41 (DE3). A membrane of DE3 was disrupted and LeuT was solubilized with 1% (w/v) DDM. Subsequently, LeuT solubilized with the amphipathic molecule was fixed to a Chelating Sepharose Fast Flow resin (GE Healthcare, Little Chalfont, UK), followed by washing with tetramethylrhodamine-5-maleimide (TMR, Life Technologies, Carlsbad, Calif., USA) at 4° C. for 16 hours. Subsequently, LeuT was eluted with a buffer containing 300 mM imidazole, 20 mM Tris-HCl (pH 8.0), 1 mM NaCl, 199 mM KCl, and 0.05% DDM.
Fluorescence spectroscopy was carried out according to the following method. A fluorescence-based experiment was carried out by diluting 0.5 μg ml^−1 of fluorescence-labeled LeuT with buffer A supplemented with CMC+0.04% by weight of DDM, MNG-3 or NDT-C11. Leucine was separately added to specimen aliquots of LeuT for each concentration and incubated for one hour in a room temperature shaker. Steady-state fluorescence intensities were recorded with a FluoroMax4 (Horiba Scientific, Edison, N.J., USA) at λem=572 nm and excitation source at λex=552 nm at 25° C. Quencher-titration was carried out by successive additions of small specimen aliquots containing 1 M KI into buffer A supplemented with 10 mM Na2S2O3. Fluorescence intensities (F) were corrected for sample dilution and normalized to the initial intensity (F0) of a sample. All data was analyzed by linear-(Stern-Volmer plot) or nonlinear regression in GraphPad Prism 6.0 (GraphPad Software). The degree of iodide (I^−) accessibility was obtained from the following Stern-Volmer equation: F0/F=1+Ksv×[Q], where F0/F is normalized fluorescence quenching, Ksv is a Stern-Volmer constant, and [Q] is quencher concentration. When means are calculated as a log, the means are shown as pIC50 and the [s.e.m. interval] from pIC50±s.e.m.
Values of radioligand binding constants were calculated through SPA saturation binding experiments. Values of iodide quenching-response constants and ΔKSV were calculated from a site-directed fluorescence quenching spectroscopy. The affinity (Kd) is shown as means±s.e.m and ΔKSV is shown as means [s.e.m. interval]. All data is shown as means of three to four independent experiments.

[2] = system: leucine transporter (LeuT); assay: LeuT stability by [3H]-Leu scintillation proximity assay (SPA); format: biochemical, Aquifex aeolicus
Protocol: Experiments to measure the structural stability of a leucine transporter (LeuT) protein by TDTs or NDTs were conducted. LeuT protein activity was measured by scintillation proximity assay (SPA) utilizing [^3H]-Leu as a ligand. The concentration of TDTs, NDTs, or DDM was (a) CMC+0.04% by weight, or (b) CMC+[…].
In particular, the LeuT stability measurement experiments were conducted according to the following methods. Depending upon the results of UapA and MelB, only TDT-C11, TDT-C12, NDT-C10, NDT-C11 and NDT-C12 among the amphipathic molecules according to the present invention were selectively used. In accordance with a method disclosed in a paper published by G. Deckert, et al. (Nature 1998, 392, 353-358), a wild-type leucine transporter (LeuT) was purified from Aquifex aeolicus. LeuT is expressed in E. coli C41 (DE3) transformed with pET16b encoding a C-terminal 8×His-tagged transporter (the expression plasmid was provided by Dr E. Gouaux, Vollum Institute, Portland, Oreg., USA). In summary, the […] protein was isolated and solubilized with 1.0% by weight of DDM, followed by binding the protein to a Ni^2+-NTA resin (Life Technologies, Denmark) and eluting the same with 20 mM Tris-HCl (pH 8.0), 1 mM NaCl, 199 mM KCl, 0.05% DDM, and 300 mM imidazole. Next, about 1.5 mg/ml of a protein stock was 10-fold diluted with a buffer in which DDM and imidazole are absent, but TDTs, NDTs, or DDM (control) is supplemented such that a final concentration becomes CMC+0.04% by weight or CMC+0.2% by weight. Protein samples were stored at room temperature and centrifuged at a predetermined time. To evaluate protein activity, [^3H]-Leu coupling was measured using scintillation proximity assay (SPA) (M. Quick et al., Proc. Natl, Acad. Sci. U.S.A. 2007, 104, 3603-3608). 5 μL of each protein sample dissolved in a buffer that contained 200 mM NaCl and each test compound was analyzed. SPA reaction was carried out in the presence of 20 nM [^3H]-Leu and copper chelate (His-Tag) YSi beads (both purchased from PerkinElmer, Denmark). [^3H]-Leu coupling was measured by means of a MicroBeta liquid scintillation counter (PerkinElmer).

| Compound | Δ KSV [1] [M⁻¹] | Ksv when leucine is absent [1] | Structural fluidity of the LeuT protein ([1]; conclusion from ΔKsv) | LeuT protein stabilization ability ([3H]-Leu binding) ([2]; CMC+0.04% by weight, room temperature) | LeuT protein stabilization, overall comparison ([2]; conclusion) |
| --- | --- | --- | --- | --- | --- |
| CCCCCCCCCCCCOC1OC(CO)C(OC2OC(CO)C(O)C(O)C2O)C(O)C1O [DDM, n-dodecyl-β-D-maltopyranoside, reference compound] | 1.1 | up to 1.6 |  |  |  |
| CCCCCCCCCCCC(CCCCCCCCCCC)COCC(CO[C@@H]1OC(CO)[C@@H](O)C(O)C1O)(CO[C@@H]1OC(CO)[C@@H](O)C(O)C1O)CO[C@@H]1OC(CO)[C@@H](O)C(O)C1O (stereo partly shown) [NDT-C11] | 0.9 | up to 2.5 | satisfactorily maintains the structural fluidity | most excellent | superior to DDM and similar to MNG-3 |
